Experiments:
A549 cells = assay: Proliferation of A549 nonsmall cell lung cancer cells (overexpress COX-2); type: cell-based, human; details: A549 overexpress COX-2
From the text: The antitumor efficacy of specifically formulated fish oil 30 diets was studied in human lung cancer A549 xenograft (over expression of COX-2) and H1299 xenograft (lack of COX-2 expression).
FIG. 17 illustrates the relative effect of WholeMega and two commercial fish oil products to inhibit proliferation of human A549 nonsmall cell lung cancer cells (top figure) and human H1299 nonsmall cell lung cancer cells (bottom figure). A549 cells overexpress COX-2, as many cancer cells are known to do. […] The A549 cells over-express COX-2 which normally results in an over-expression/production of PGE2. When provided with an alternate substrate, however, such as fish oil EPA, the resulting product is PGE3 rather than PGE2. […] Clearly, at least one structural feature unique to the Wholemega composition contributes an additional anti-tumor effect. One possibility is that that other oils in Wholemega (omega-5, omega-7 and omega-9 oils), that are not present in the other two fish oils, contribute to an additional inhibitory effect on the growth of the cancer cells. Another possibility would be the relative fractions of certain oils to one another. Yet another possibility would be the herbal oil component, e.g. SCE rosemary and SCE oregano) contribute an added inhibitory effect on the growth of the cancer cells. […]

gram-positive bacteria = details: purified cPA (>99%); cited from earlier work
Selenomonas artemidis = details: only one of 45 compounds surveyed; cited from earlier work
beta-cell = details: 0.5 mmol/l, medium with 5.5, 11.1 or 33.3 mmol/l glucose, 4 days; cited from earlier work

Structure (SMILES): CCCCC[C@H](O)/C=C/[C@H]1[C@H](O)CC(=O)[C@@H]1C/C=C\CCCC(=O)O [PGE2]
- effect on proliferation of A549 cells (A549 cells): slightly stimulates proliferation

Structure (SMILES): CC/C=C\C[C@H](O)/C=C/[C@H]1[C@H](O)CC(=O)[C@@H]1C/C=C\CCCC(=O)O [PGE3]
- effect on proliferation of A549 cells (A549 cells): inhibits proliferation

Structure (SMILES): CCCCCCCCC/C=C\CCCCC(=O)O [cPA, palmitoleic acid (C16:1delta6, cPA)]
- minimal inhibitory concentration (MIC) (gram-positive bacteria): 10 to 20 µg/mL

Structure (SMILES): CCCCC=CCCCCCCCC(=O)O [myristoleic acid, 9-tetradecenoic acid]
- inhibitory concentration towards S. artemidis (Selenomonas artemidis): < 100 micrograms/ml

Structure (SMILES): CCCCCC/C=C\CCCCCCCC(=O)O [palmitoleic acid]
- beta-cell DNA fragmentation (beta-cell): did not affect

From patent US9795647B2, “Compositions and methods for modulating inflammatory potential” (New Chapter Inc., priority 2009, dated 2017)
